For one series, the target named is T1, La protein:fD1-RNA (Homo sapiens, UniProt P05455).
T1 construct: His; made in house; host or cells: E. coli BL21
T1 sequence (P05455 1-408): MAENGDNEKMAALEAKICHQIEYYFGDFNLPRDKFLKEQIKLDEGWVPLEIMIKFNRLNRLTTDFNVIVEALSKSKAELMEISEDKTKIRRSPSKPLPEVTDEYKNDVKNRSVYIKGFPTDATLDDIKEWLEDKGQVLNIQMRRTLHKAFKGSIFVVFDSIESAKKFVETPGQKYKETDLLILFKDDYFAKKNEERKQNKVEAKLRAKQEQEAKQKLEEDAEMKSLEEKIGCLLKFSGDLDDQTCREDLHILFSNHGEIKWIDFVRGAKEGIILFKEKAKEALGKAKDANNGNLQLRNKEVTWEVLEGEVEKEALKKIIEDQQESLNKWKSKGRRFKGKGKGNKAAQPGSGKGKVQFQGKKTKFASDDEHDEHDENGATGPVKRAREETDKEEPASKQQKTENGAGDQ
Briefly: La:RNA fluorescence polarization assay (La-FP). The class given is binding. To be noted: for IC50: 1.35 μM La, 0.8 μM fD1-RNA, compound at 25, 50, 100, 1000 μM, read-out: IC50, La:fD1-RNA complex formation (La-FP); for inhibition at 100 µM: compound 100 μM; for inhibition at 1000 µM: compound 1000 μM. The protocol: Measurements of fluorescence and fluorescence polarization were performed on a Spectramax M5 microplate reader (Molecular Devices, Sunnyvale, CA) with the excitation and emission wavelengths 544 nm and 590 nm, respectively. To block unwanted residual excitation light and minimize background interference, a 570 nm “cutoff” filter was applied. Black shallow 384-well micro plates (ProxiPlate ^TM– 384 F Plus, PerkinElmer) were used to record data. To minimize the polarization effects from fluorophore, which may be bound to the surface of the well, both excitation and emission data were recorded from the top of the well. Reading time was 100 ms per well. Millipolarization units (mP) were used to express fluorescence polarization values defined by the equation mP = 1000 x [(Iv—GIh) / (Iv+ GIh)], where Iv and Ih are parallel and perpendicular emission intensity measurements corrected for background (buffer), and G-factor.
The ratio of sensitivities of the detection system for vertically and horizontally polarized light G = Iv/Ih was determined with dilution series of the fluorescence-labeled cyclin D1-RNA oligonucleotide (fD1) only (free-tracer) using SoftMax® Pro Data Acquisition & Analysis Software (Molecular Devices, Sunnyvale, CA). The assay window–the specific binding ΔmP–was defined as the difference between fluorescence polarization (mP) for La protein:fD1 reactions (mPs) and fluorescence polarization of free-fD1 reactions (mPfree): ΔmP = mPs−mPfree.
The assay was formatted using 10 μl reaction volume per well. Assay buffer (20 mM Tris-HCl pH 7.5, 3.0 mM MgCl2, 0.5 mM EDTA, 150 mM NaCl, 0.05% IGEPAL, BGG 100 μg/ml (BGG = Bovine γ-Globulin or γ-Globulins from bovine blood)) was used to dilute all ingredients. Detergent was added to prevent the potential aggregation of small compounds. The aggregation of small compounds can lead to false-positive results in HTS approaches and is indicated by a high Hill factor[50]. To find the optimal concentration of the free fluorescent tracer (fD1), which gives low and stable fluorescence polarization signal, and to calculate the G-factor, 100–1000 nM fD1 dilution series were measured in quadruplicates. Using variable fD1 concentrations, the optimal tracer:protein ratio was determined in binding experiments with increasing concentrations of La protein (1.35–1350 nM). To start the reaction, fD1 and La protein stock solutions were mixed into each well. Each reaction was performed in quadruplicates. After shaking the plate for 2 min followed by 15 min incubation at room temperature, fluorescence polarization signals were recorded as described above. Fluorescence polarization measurements were performed on different days using 7 microtiter plates (111 samples total).
High-throughput screening against the ChemBridge DIVERSet library was carried out under the following conditions: 1 μl of each compound (dissolved in 100% DMSO) was pre-incubated with 8 μl of La protein for 30 min at room temperature, followed by an additional 15 min incubation with 1 μl of fD1 (final concentration of La, fD1, and DMSO in the 10 μl reaction: 1.35 μM La, 0.8 μM fD1, 10% DMSO). The reactions were performed in duplicate. In addition to samples with the compounds, each plate contained 2 background wells (10 μl buffer only), and at least 4 wells for Ps (La and fD1) and Pfree (fD1 alone) reactions. All samples included 10% DMSO. Pilot screening was carried out with 10 mM cocktails of 10 compounds (giving a final concentration of 100 μM for each compound). […] Using the same fluorescence polarization assay format, La protein (1.35 μM) was incubated with each potential hit compound at 25, 50, 100, 1000 μM (in triplicate) for 30 min, followed by an additional 15 min incubation with 0.8 μM fD1. Data points for specific binding (B) were normalized to the maximum specific binding (Bmax), which defines complete saturation of the La protein with fD1 in the absence of a compound (B/Bmax). […]

The next series concerns HEK293 cells. Description: HEK293 cell proliferation and viability. Conditions: data not shown. The class given is cell-based, human.
For another series, the system named is SCC 22B cells. Description: Cisplatin sensitization, CyQUANT, SCC 22B. Conditions: 50 μM C2.01 pretreatment. The class given is cell-based, human. The protocol:
To test whether compound C2.01 sensitizes cells for cisplatin, cells were treated with 0.2% DMSO alone, cisplatin at 4, 8, 16, 32 or 64 μM concentration alone or in combination with 50 μM compound C2.01. The half maximal inhibitory concentration (IC50) of cisplatin was determined by treating SCC 22B cells with increasing cisplatin (Selleckchem) concentrations or vehicle (DMSO) for 48 h (96-well format) as described recently. For this experiments 1x10^4 SCC 22B cells were plated the day before the experiment. DMSO or C2.01 was added to a final concentration of DMSO (0.05%) and C2.01 (50 μM). Six hours later the different cisplatin concentrations were added. The highest DMSO concentration of 0.25% was used in the control for cisplatin and C2.01 double treatment. Subsequently, cells were washed twice with 1x PBS and quantified after staining with fluorescence dye (CyQUANT®, Life Technologies) 48 after the initial C2.01 treatment.

The test system of series [1] is Bcl2 protein level in SCC 22B cells. Description: Immunoblot for Bcl2, SCC 22B. The series is classed as cell-based, human. To be noted: cisplatin and C2.01 (50 μM) versus vehicle.
For series [2], the system named is Bcl2 protein level in SCC 22A cells. Description: Immunoblot for Bcl2, SCC 22A. The class given is cell-based, human. To be noted: cisplatin and C2.01 (50 μM) versus vehicle. Background: Immunoblotting shows a protein as a band on a membrane.
A further series relates to SCC 22A cells. Description: Phase contrast microscopy and cisplatin IC50, SCC 22A. The class given is cell-based, human. Conditions: C2.01 (50 μM) combined with cisplatin 12 μM.

For orientation: IC50 means the concentration at which inhibition is half-maximal. As a reminder, the inhibition is the percentage by which the read-out fell short of the control. Read a low inhibition as a response near the control. For `O=C(O)c1ccccc1C(=O)c1ccc(O)cc1O` [C2, 2-(2,4-dihydroxybenzoyl)benzoic acid], on La protein:fD1-RNA, the IC50 worked out at 7.5 µM, the inhibition at 100 µM stood at 100% and the inhibition at 1000 µM came out at 100%.

For the compound `Cc1ccc(C(=O)c2ccccc2C(=O)O)c(O)c1` [C2.01, 2-(2-hydroxy-4-methylbenzoyl)benzoic acid], the “cell proliferation and viability of HEK293 cells” value is reported as “not” in the series with HEK293 cells (150 μM or below) and “impaired” in the series with HEK293 cells (300 or 450 μM). Besides, in the series with SCC 22B cells, the “sensitization of SCC 22B cells for cisplatin treatment” value is listed as “sensitizes”. Besides, the “Bcl2 protein levels (immunoblot)” value in series [1] and in series [2] was “reduced” each time. Further, the “cell number by phase contrast images” value in the series on SCC 22A cells was “dramatically reduced cell number”.

With `CCOC(=O)c1ccc2c(c1)C1C=CCC1C(C(=O)O)N2` (stereo not drawn) [C6, 8-(ethoxycarbonyl)-3a,4,5,9b-tetrahydro-3Hcyclopenta[c]quinoline-4-carboxylic acid], on La protein:fD1-RNA, the IC50 is 2.5 µM, the inhibition at 100 µM amounted to 100% and the inhibition at 1000 µM came out at 100%.

The values above are taken from article PMC5349447, “Applying a high-throughput fluorescence polarization assay for the discovery of chemical probes blocking La:RNA interactions in vitro and in cells” (PLoS ONE, 2017).
